Source: US10766869B2, “Triazoles for the treatment of demyelinating dieases” (Vertex Pharmaceuticals Incorporated, priority 2015, dated 2020)
Like-named read-outs stand apart in the source and are kept apart here.

System: primary rat mixed cortical cells
Assay: In vitro myelination assay (MBP positive myelin strands, fold myelin pixels above background)
Type: cell-based
Details: Rattus norvegicus, relative to baseline of no added compound; for fold induction at 1 µM: 1.0 μM compound; for fold induction at 10 µM: 10.0 μM compound
Outline: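 Fourteen-day treatment of primary P1 rat mixed cortical cultures, re-dosed at days 6 and 10, at 1.0 μM and 10.0 μM. MBP immunofluorescence was imaged at 10× and myelin strands quantified by software, normalised to untreated wells as fold above background.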

[1] = read-out: Fold myelin pixels above background, 1.0 μM
[2] = read-out: Fold myelin pixels above background, 10.0 μM
[3] = read-out: Fold myelin pixels above background

Cc1cc(Nc2ncn(-c3cc(F)ccc3F)n2)cc(N2CCC(C3COC3)CC2)c1 [Compound 383, 1-(2,5-difluorophenyl)-N-[3-methyl-5-[4-(oxetan-3-yl)-1-piperidyl]phenyl]-1,2,4-triazol-3-amine]
fold induction at 1 µM [1]: 10 to 100 | fold induction at 10 µM [2]: 1 to 10

Cc1cc(Nc2ncn(-c3ccc(F)c(F)c3)n2)cc(OC2CCN(C3COC3)CC2)c1 [Compound 384, 1-(3,4-difluorophenyl)-N-[3-methyl-5-[[1-(oxetan-3-yl)-4-piperidyl]oxy]phenyl]-1,2,4-triazol-3-amine]
fold induction at 1 µM [1]: 100 to 1000 | fold induction at 10 µM [2]: 100 to 1000

COCC1CCN(c2cc(C)cc(Nc3ncn(-c4ccncc4)n3)c2)CC1 [Compound 385, N-[3-[4-(methoxymethyl)-1-piperidyl]-5-methyl-phenyl]-1-(4-pyridyl)-1,2,4-triazol-3-amine]
fold induction at 1 µM [1]: 100 to 1000 | fold induction at 10 µM [2]: 100 to 1000

Cc1cc(Nc2ncn(-c3ccc(F)c(F)c3)n2)cc(N2CCN(C3COC3)CC2)c1 [Compound 386, 1-(3,4-difluorophenyl)-N-[3-methyl-5-[4-(oxetan-3-yl)piperazin-1-yl]phenyl]-1,2,4-triazol-3-amine]
fold induction at 1 µM [3]: 100 to 1000 | fold induction at 10 µM [3]: 1000 to 10000

Cc1cc(Nc2ncn(-c3cncc(F)c3)n2)cc(N2CCN(C)CC2)c1 [Compound 387, 1-(5-fluoro-3-pyridyl)-N-[3-methyl-5-(4-methylpiperazin-1-yl)phenyl]-1,2,4-triazol-3-amine]
fold induction at 1 µM [3]: 10 to 100 | fold induction at 10 µM [3]: 100 to 1000

COc1cc(F)cc(-n2cnc(Nc3cc(C4CC4)cc(N4CCN(C5COC5)CC4)c3)n2)c1 [Compound 388, N-[3-cyclopropyl-5-[4-(oxetan-3-yl)piperazin-1-yl]phenyl]-1-(3-fluoro-5-methoxy-phenyl)-1,2,4-triazol-3-amine]
fold induction at 1 µM [3]: 10 to 100 | fold induction at 10 µM [3]: ≤ 1

Fc1cc(F)cc(-n2cnc(Nc3cc(C4CC4)cc(N4CCN(C5COC5)CC4)c3)n2)c1 [Compound 389, N-(3-cyclopropyl-5-(4-(oxetan-3-yl)piperazin-1-yl)phenyl)-1-(3,5-difluorophenyl)-1H-1,2,4-triazol-3-amine]
fold induction at 1 µM [3]: 1000 to 10000 | fold induction at 10 µM [3]: ≤ 1

CCN(C)Cc1cc(F)cc(-n2cnc(Nc3cc(C)cc(N4CCN(C)CC4)c3)n2)c1 [Compound 390, 1-[3-[[ethyl(methyl)amino]methyl]-5-fluoro-phenyl]-N-[3-methyl-5-(4-methylpiperazin-1-yl)phenyl]-1,2,4-triazol-3-amine]
fold induction at 1 µM [3]: 10 to 100 | fold induction at 10 µM [3]: 10 to 100

Cc1cc(Nc2ncn(-c3ccccc3)n2)cc(O[C@@H]2CCN(C3COC3)C2)c1 [Compound 391, N-[3-methyl-5-[(3R)-1-(oxetan-3-yl)pyrrolidin-3-yl]oxy-phenyl]-1-phenyl-1,2,4-triazol-3-amine]
fold induction at 1 µM [3]: 1000 to 10000 | fold induction at 10 µM [3]: 100 to 1000

FC(F)c1cc(Nc2ncn(-c3ccccc3)n2)cc(N2CCOCC2)c1 [Compound 392, N-[3-(difluoromethyl)-5-morpholino-phenyl]-1-phenyl-1,2,4-triazol-3-amine]
fold induction at 1 µM [3]: 100 to 1000 | fold induction at 10 µM [3]: 10 to 100

Fc1ccc(-n2cnc(Nc3cc(N4CCOCC4)nc(N4CCOCC4)c3)n2)cc1F [Compound 393, N-[1-(3,4-difluorophenyl)-1,2,4-triazol-3-yl]-2,6-dimorpholino-pyridin-4-amine]
fold induction at 1 µM [3]: 100 to 1000 | fold induction at 10 µM [3]: ≤ 1

Fc1ccc(-n2cnc(Nc3cc(F)cc(N4CCOCC4)c3)n2)cc1 [Compound 394, N-(3-fluoro-5-morpholino-phenyl)-1-(4-fluorophenyl)-1,2,4-triazol-3-amine]
fold induction at 1 µM [3]: 1 to 10 | fold induction at 10 µM [3]: ≤ 1

COc1cc(F)cc(-n2cnc(Nc3cc(C)cc(N4CCN(C)CC4)c3)n2)c1 [Compound 395, 1-(3-fluoro-5-methoxy-phenyl)-N-[3-methyl-5-(4-methylpiperazin-1-yl)phenyl]-1,2,4-triazol-3-amine]
fold induction at 1 µM [3]: 10 to 100 | fold induction at 10 µM [3]: ≤ 1

CCCc1cc(Nc2ncn(-c3cc(F)cc(F)c3)n2)cc(N2CCN(C3COC3)CC2)c1 [Compound 396, 1-(3,5-difluorophenyl)-N-[3-[4-(oxetan-3-yl)piperazin-1-yl]-5-propyl-phenyl]-1,2,4-triazol-3-amine]
fold induction at 1 µM [3]: 10 to 100 | fold induction at 10 µM [3]: 10 to 100

Cc1cc(Nc2ncn(-c3cccc(Cl)c3)n2)cc(N2CCN(C3COC3)CC2)c1 [Compound 397, 1-(3-chlorophenyl)-N-[3-methyl-5-[4-(oxetan-3-yl)piperazin-1-yl]phenyl]-1,2,4-triazol-3-amine]
fold induction at 1 µM [3]: 1000 to 10000 | fold induction at 10 µM [3]: 100 to 1000

Cc1cc(Nc2ncn(-c3ccccc3)n2)cc(N2CCN(CC(F)(F)F)CC2)c1 [Compound 398, N-[3-methyl-5-[4-(2,2,2-trifluoroethyl)piperazin-1-yl]phenyl]-1-phenyl-1,2,4-triazol-3-amine]
fold induction at 1 µM [3]: 1000 to 10000 | fold induction at 10 µM [3]: 100 to 1000

Cc1cc(Nc2ncn(-c3ccnnc3)n2)cc(N2CCN(C)CC2)c1 [Compound 399, N-[3-methyl-5-(4-methylpiperazin-1-yl)phenyl]-1-pyridazin-4-yl-1,2,4-triazol-3-amine]
fold induction at 1 µM [3]: 10 to 100 | fold induction at 10 µM [3]: 1 to 10

Fc1cc(Cl)cc(-n2cnc(Nc3cc(C4CC4)cc(N4CCN(C5COC5)CC4)c3)n2)c1 [Compound 400, 1-(3-chloro-5-fluoro-phenyl)-N-[3-cyclopropyl-5-[4-(oxetan-3-yl)piperazin-1-yl]phenyl]-1,2,4-triazol-3-amine]
fold induction at 1 µM [3]: 1000 to 10000 | fold induction at 10 µM [3]: ≤ 1

CCc1cc(Nc2ncn(-c3cncc(C)n3)n2)cc(N2CCN(C3COC3)CC2)c1 [Compound 401, N-[3-ethyl-5-[4-(oxetan-3-yl)piperazin-1-yl]phenyl]-1-(6-methylpyrazin-2-yl)-1,2,4-triazol-3-amine]
fold induction at 1 µM [3]: 100 to 1000 | fold induction at 10 µM [3]: 100 to 1000

CC(=O)N1CCC(Nc2cc(C)cc(Nc3ncn(-c4ccccc4)n3)c2)CC1 [Compound 402, 1-[4-[3-methyl-5-[(1-phenyl-1,2,4-triazol-3-yl)amino]anilino]-1-piperidyl]ethanone]
fold induction at 1 µM [3]: 100 to 1000 | fold induction at 10 µM [3]: 10 to 100

Cc1cc(Nc2ncn(-c3ccnc(F)c3)n2)cc(N2CCOCC2)c1 [Compound 403, 1-(2-fluoro-4-pyridyl)-N-(3-methyl-5-morpholino-phenyl)-1,2,4-triazol-3-amine]
fold induction at 1 µM [3]: 1000 to 10000 | fold induction at 10 µM [3]: 10 to 100

Cc1cc(Nc2ncn(-c3ccccn3)n2)cc(C2COC2)c1 [Compound 404, N-[3-methyl-5-(oxetan-3-yl)phenyl]-1-(2-pyridyl)-1,2,4-triazol-3-amine]
fold induction at 1 µM [3]: 100 to 1000 | fold induction at 10 µM [3]: 100 to 1000

Fc1cc(F)cc(-n2cnc(Nc3cc(C4CC4)nc(N4CCOCC4)c3)n2)c1 [Compound 405, 2-cyclopropyl-N-[1-(3,5-difluorophenyl)-1,2,4-triazol-3-yl]-6-morpholino-pyridin-4-amine]
fold induction at 1 µM [3]: 100 to 1000 | fold induction at 10 µM [3]: 1000 to 10000

Fc1cc(F)cc(-n2cnc(Nc3cc(C4CCOCC4)nc(C4CC4)c3)n2)c1 [Compound 407, 2-cyclopropyl-N-[1-(3,5-difluorophenyl)-1,2,4-triazol-3-yl]-6-tetrahydropyran-4-yl-pyridin-4-amine]
fold induction at 1 µM [3]: 1000 to 10000 | fold induction at 10 µM [3]: ≤ 1

Cc1cc(Nc2ncn(-c3cc(F)cc(F)c3)n2)cc(C2CCCN(C3COC3)C2)c1 (stereo not shown) [Compound 408, 1-(3,5-difluorophenyl)-N-[3-methyl-5-[1-(oxetan-3-yl)-3-piperidyl]phenyl]-1,2,4-triazol-3-amine]
fold induction at 1 µM [3]: 100 to 1000 | fold induction at 10 µM [3]: 10 to 100

Cc1cc(Nc2ncn(-c3ccc(F)cc3)n2)cc(C2COC2)c1 [Compound 409, 1-(4-fluorophenyl)-N-[3-methyl-5-(oxetan-3-yl)phenyl]-1,2,4-triazol-3-amine]
fold induction at 1 µM [3]: 1000 to 10000 | fold induction at 10 µM [3]: 100 to 1000

Cc1cc(Nc2ncn(-c3ccccc3)n2)cc(OC2CCN(C3COC3)CC2)c1 [Compound 410, N-[3-methyl-5-[[1-(oxetan-3-yl)-4-piperidyl]oxy]phenyl]-1-phenyl-1,2,4-triazol-3-amine]
fold induction at 1 µM [3]: 10 to 100 | fold induction at 10 µM [3]: ≤ 1

Cc1cc(Nc2ncn(-c3cccc(F)c3)n2)cc(C2CCCN(C3COC3)C2)c1 (stereo not shown) [Compound 411, 1-(3-fluorophenyl)-N-[3-methyl-5-[1-(oxetan-3-yl)-3-piperidyl]phenyl]-1,2,4-triazol-3-amine]
fold induction at 1 µM [3]: 100 to 1000 | fold induction at 10 µM [3]: ≤ 1

CN1CCN(c2cc(Nc3ncn(-c4ccc(F)c(F)c4)n3)cc(C(F)(F)F)c2)CC1 [Compound 412, 1-(3,4-difluorophenyl)-N-[3-(4-methylpiperazin-1-yl)-5-(trifluoromethyl)phenyl]-1,2,4-triazol-3-amine]
fold induction at 1 µM [3]: 1000 to 10000 | fold induction at 10 µM [3]: ≤ 1

Cc1cc(Nc2ncn(-c3cc(F)c(F)cc3F)n2)cc(N2CCN(C3COC3)CC2)c1 [Compound 413, N-[3-methyl-5-[4-(oxetan-3-yl)piperazin-1-yl]phenyl]-1-(2,4,5-trifluorophenyl)-1,2,4-triazol-3-amine]
fold induction at 1 µM [3]: ≤ 1 | fold induction at 10 µM [3]: 100 to 1000

Cc1cc(Nc2ncn(-c3ccccc3C)n2)cc(N2CCN(C3COC3)CC2)c1 [Compound 414, N-[3-methyl-5-[4-(oxetan-3-yl)piperazin-1-yl]phenyl]-1-(o-tolyl)-1,2,4-triazol-3-amine]
fold induction at 1 µM [3]: 1 to 10 | fold induction at 10 µM [3]: 100 to 1000

Cc1cc(Nc2ncn(-c3cc(F)cc(OC(C)C)c3)n2)cc(N2CCN(C3COC3)CC2)c1 [Compound 415, 1-(3-fluoro-5-isopropoxy-phenyl)-N-[3-methyl-5-[4-(oxetan-3-yl)piperazin-1-yl]phenyl]-1,2,4-triazol-3-amine]
fold induction at 1 µM [3]: 100 to 1000 | fold induction at 10 µM [3]: ≤ 1
